Reference: patent publication US9725439B2, “Quinazoline derivative and preparation method therefor” (CHIA TAI TIANQING PHARMACEUTICAL GROUP CO., LTD., priority 2013, dated 2017)

Experiments:
[1] = target: HER2 (Homo sapiens (Human), UniProt P04626); assay: In vitro enzymology test (HTRF kinase activity); format: biochemical; conditions: read-out: Enzyme activity (IC50 nM) HER2
From the text: 1. The Method for In Vitro Enzymology Test
EGFR, EGFR (T790M, L858R), HER2 kinase were expressed and purified through an insect cell expression system by the Department of Biology, Centaurus Biopharma, Beijing, or purchased from commercially available products.
The platform for testing the kinase activity of EGFR, EGFR (T790M, L858R) and HER2 was established based on the homogeneous time-resolved fluorescence (HTRF) method provided by Cisbio Bioassays, and the activity of the compounds was determined with the platform. […]. And 2.5 μL of the mixture was taken, added into 384-well plates (OptiPlate-384, PerkinElmer), then 2.5 μL of kinase was added, mixed thoroughly by centrifuge. Then 5 μL of ATP and TK Substrate-biotin were added to initiate the reaction. The 384-well plates were incubated at 23° C. in an incubator for a certain period of time, then 5 μL of Eu3^+-Cryptate labeled TK-Antibody and 5 μL of streptavidin-XL665 were added to stop the reaction. After 1 h incubation in an incubator, the fluorescence value was read on Envision (PerkinElmer). The IC50 value of the compound was calculated with the software GraphPad Prism 5.0.

[2] = tested on: BT474, a human breast cancer cell line; assay: Proliferation test of anchorage-independent cells; format: cell-based; conditions: BT-474, 168 h, BT474, soft agarose, 7 days, CellTiter-Blue
Procedure: (§1) 2. Proliferation Test of Anchorage-Independent Cells
(§2) NCI-H1975, a human non-small cell lung cancer cell, and BT474, a human breast cancer cell line, were incubated with RPIM-1640 or DMEM medium supplemented with 10% fetal bovine serum (FBS) in a cell incubator (37° C., 5% CO2). In the test of the compounds, the coated substrate with a concentration of 0.6% was used. The cells were screened with 0.3% low melting point agarose, then plated into 96-well plates with a density of 10,000 cells per well (100 μL). Starting from 10 mM, the compounds were diluted in a gradient of 3 times. For each concentration, 2 μL of the solution was taken and added into 98 μL of medium, then 5.3 μL of the mixture was added into the cell culture medium (where the final concentration of DMSO was 0.1%, v/v). After one week (7 days) of treatment, 20 μL of CellTiter-Blue®reagent (Promega) was added, incubated at 37° C. for 4 h. The fluorescent signal was read on Envison (Perkin Elmer).

[3] = tested on: NCI-H1975, a human non-small cell lung cancer cell; assay: Proliferation test of anchorage-independent cells; format: cell-based; conditions: 168 h, NCI-H1975, soft agarose, 7 days, CellTiter-Blue
Procedure: as §1, §2

[4] = Pharmacokinetics test on rats; format: in vivo; conditions: rat, po; male rats, gavage, single dose 5 mg/kg, plasma
Procedure: Pharmacokinetics Test on Rats
In this study, 6 healthy adult male rats (from Beijing Vital River Laboratory Animal Technology Co., Ltd.) were used. The animals were fast overnight before the experiment. The fasting period was from 12 h prior to the administration, till 4 h after the administration. Drug administration was performed through gavage at a single dose of 5 mg/kg. The compounds to be tested were dissolved in 20% aqueous solution of sulfobutyl-β-cyclodextrin (SBE). Blood samples were collected 0.25, 0.5, 1, 2, 4, 6, 8 and 24 hours after drug administration. During blood sampling, the animals were lightly anesthetized with isoflurane, and approximately 0.5 mL whole blood was collected from retro-orbital venous sinus, placed into tubes that contain heparin as anticoagulant. The samples were centrifuged at 4° C., 4000 rpm for 5 min. The plasma was transferred into centrifuge tubes, and stored at −80° C. till being analyzed. The drug concentration in the plasma was quantitatively analyzed with liquid chromatography-tandem mass spectrometry (LC-MS/MS). From the analysis result of the samples, the pharmacokinetic parameter of the compounds was calculated with WinNonlin (WinNonlin Professional, version […]).

HER2, sequence (P04626 23-1255): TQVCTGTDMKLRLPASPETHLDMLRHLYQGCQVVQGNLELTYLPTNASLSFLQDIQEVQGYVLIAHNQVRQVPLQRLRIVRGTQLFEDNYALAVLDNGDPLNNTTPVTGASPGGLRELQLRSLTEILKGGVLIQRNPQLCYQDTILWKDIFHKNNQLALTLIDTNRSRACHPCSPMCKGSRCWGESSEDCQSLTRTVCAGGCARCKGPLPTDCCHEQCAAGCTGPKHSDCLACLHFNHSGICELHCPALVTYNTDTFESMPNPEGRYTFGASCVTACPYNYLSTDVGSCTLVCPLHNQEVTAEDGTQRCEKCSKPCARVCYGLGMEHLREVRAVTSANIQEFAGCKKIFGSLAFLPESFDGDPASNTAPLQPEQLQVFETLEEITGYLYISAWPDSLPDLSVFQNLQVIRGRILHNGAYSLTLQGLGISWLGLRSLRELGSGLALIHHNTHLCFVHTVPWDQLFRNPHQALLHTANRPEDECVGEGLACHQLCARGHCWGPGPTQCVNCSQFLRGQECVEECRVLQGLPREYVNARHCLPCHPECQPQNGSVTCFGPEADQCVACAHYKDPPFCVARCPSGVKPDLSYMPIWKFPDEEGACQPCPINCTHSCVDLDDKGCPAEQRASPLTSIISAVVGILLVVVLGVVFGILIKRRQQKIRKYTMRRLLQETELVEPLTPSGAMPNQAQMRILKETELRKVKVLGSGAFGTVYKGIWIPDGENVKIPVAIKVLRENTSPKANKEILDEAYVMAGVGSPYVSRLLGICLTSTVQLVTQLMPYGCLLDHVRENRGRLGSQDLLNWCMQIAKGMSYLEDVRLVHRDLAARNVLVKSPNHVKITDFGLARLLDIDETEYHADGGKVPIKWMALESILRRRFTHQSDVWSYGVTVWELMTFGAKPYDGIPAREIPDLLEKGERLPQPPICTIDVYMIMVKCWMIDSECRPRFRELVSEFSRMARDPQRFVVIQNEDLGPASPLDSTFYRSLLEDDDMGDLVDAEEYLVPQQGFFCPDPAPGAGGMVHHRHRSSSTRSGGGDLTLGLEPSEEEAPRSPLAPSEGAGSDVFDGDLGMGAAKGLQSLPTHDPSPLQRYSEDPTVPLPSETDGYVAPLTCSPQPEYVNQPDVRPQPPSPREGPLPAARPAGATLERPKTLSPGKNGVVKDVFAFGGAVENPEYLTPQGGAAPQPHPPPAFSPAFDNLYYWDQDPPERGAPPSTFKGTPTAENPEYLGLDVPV

## C=CC(=O)N1CC(Nc2cc3c(Nc4ccc(F)c(Cl)c4)ncnc3cc2OC)C1 [Example 1, N^6-(1-acryloylazetidin-3-yl)-N^4-(3-chloro-4-fluorophenyl)-7-methoxyquinazoline-4,6-diamine]
[1]
  IC50: 0.5 nM
[2]
  IC50: 4.2 nM
[3]
  IC50: 21.8 nM
[4]
  AUC(0-inf): 1350 ng·h/mL
  Cmax: 588 ng/mL
  Tmax: 0.5 h
  half-life: 1.3 h

## C=CC(=O)N1CCC(Nc2cc3c(Nc4ccc(F)c(Cl)c4)ncnc3cc2OC)CC1 [Example 2, N^6-(1-acryloylpiperidin-4-yl)-N^4-(3-chloro-4-fluorophenyl)-7-methoxyquinazoline-4,6-diamine]
[1]
  IC50: 0.2 nM
[2]
  IC50: 2.1 nM
[3]
  IC50: 14 nM
[4]
  AUC(0-inf): 11000 ng·h/mL
  Cmax: 1970 ng/mL
  Tmax: 1 h
  half-life: 2.39 h

## C=CC(=O)N1CC(Nc2cc3c(Nc4ccc(F)c(Cl)c4)ncnc3cc2O[C@H]2CCOC2)C1 [Example 3, (S)—N^6-(1-acryloylazetidin-3-yl)-N^4-(3-chloro-4-fluorophenyl)-7-(tetrahydrofuran-3-yloxy)quinazoline-4,6-diamine]
[1]
  IC50: 0.3 nM
[2]
  IC50: 5.1 nM
[3]
  IC50: 31.4 nM

## C=CC(=O)N1CCC(Nc2cc3c(Nc4ccc(F)c(Cl)c4)ncnc3cc2O[C@H]2CCOC2)CC1 [Example 4, (S)—N^6-(1-acryloylpiperidin-4-yl)-N^4-(3-chloro-4-fluorophenyl)-7-(tetrahydrofuran-3-yloxy)quinazoline-4,6-diamine]
[1]
  IC50: 0.4 nM
[2]
  IC50: 1.6 nM
[3]
  IC50: 25.6 nM

## C=CC(=O)N1CCC(Nc2cc3c(Nc4ccc(OCc5ccccn5)c(Cl)c4)ncnc3cc2OC)CC1 [Example 8, 1-(4-(4-(3-chloro-4-(pyridin-2-ylmethoxy)phenylamino)-7-methoxyquinazoline-6-ylamino)piperidin-1-yl)prop-2-ene-1-one]
[1]
  IC50: 1.2 nM
[2]
  IC50: 62.1 nM
[3]
  IC50: 244 nM

## C=CC(=O)N1CC(Nc2cc3c(Nc4cccc(C(C)=O)c4)ncnc3cc2OC)C1 [Example 13, N^4-(3-acetylphenyl)-N^6-(1-acryloylazetidin-3-yl)-7-methoxyquinazoline-4,6-diamine]
[1]
  IC50: 0.5 nM

## C=CC(=O)N1CC(Nc2cc3c(Nc4cccc(Br)c4)ncnc3cc2OC)C1 [Example 14, N^6-(1-acryloylazetidin-3-yl)-N^4-(3-bromophenyl)-7-methoxyquinazoline-4,6-diamine]
[1]
  IC50: 0.2 nM
[2]
  IC50: 4.6 nM
[3]
  IC50: 59.3 nM

## C=CC(=O)N1CCC(Nc2cc3c(Nc4cccc(Br)c4)ncnc3cc2OC)CC1 [Example 15, N^6-(1-acryloylpiperidin-4-yl)-N^4-(3-bromophenyl)-7-methoxyquinazoline-4,6-diamine]
[1]
  IC50: 0.2 nM
[2]
  IC50: 4.2 nM
[3]
  IC50: 56 nM

## C=CC(=O)N1CC(Nc2cc3c(Nc4ccc(F)c(Cl)c4)ncnc3cc2OCCOC)C1 [Example 16, N^6-(1-acryloylazetidin-3-yl)-N^4-(3-chloro-4-fluorophenyl)-7-(2-methoxyethoxy)quinazoline-4,6-diamine]
[1]
  IC50: 0.3 nM
[2]
  IC50: 8.7 nM
[3]
  IC50: 32.4 nM

## C=CC(=O)N1CCC(Nc2cc3c(Nc4ccc(F)c(Cl)c4)ncnc3cc2OCCOC)CC1 [Example 17, N^6-(1-acryloylpiperidin-4-yl)-N^4-(3-chloro-4-fluorophenyl)-7-(2-methoxyethoxy)quinazoline-4,6-diamine]
[1]
  IC50: 0.4 nM
[2]
  IC50: 4.7 nM
[3]
  IC50: 71.5 nM

## C=CC(=O)N1CC(Sc2cc3c(Nc4ccc(F)c(Cl)c4)ncnc3cc2OC)C1 [Example 19, 6-(1-acryloylazetidin-3-yl)-thio-N-(3-chloro-4-fluorophenyl)-7-methoxyquinazoline-4-amine]
[2]
  IC50: 97.1 nM
[3]
  IC50: 274 nM
